# Measurements: ChEMBL document CHEMBL6153110, “Peptide Double-Stapling and Arginine N-Glycosylation Triggered the Development of Therapeutic Antimicrobial Peptides Capable of Killing Drug-Resistant Bacteria in Mice” (J Med Chem, 2025)
# Activity calls are given as the source filed them. The rule behind the calls is not given here. Positions of bridges follow the written chain, without caps; N, C: chain ends. Non-standard residues stand in square brackets, D forms with d. Residues, ends and D or L forms follow the SMILES beside them. Arg(Nω-βLac) = N=C(NCCC[C@H](N)C(=O)O)N[C@@H]1O[C@H](CO)[C@@H](O[C@@H]2O[C@H](CO)[C@H](O)[C@H](O)[C@H]2O)[C@H](O)[C@H]1O; S5 = C=CCCC[C@](C)(N)C(=O)O
# What was measured:
# Staphylococcus aureus [1] = assay: Antibiofilm activity in methicillin-resistant Staphylococcus aureus ATCC 43300 assessed as reduction in biofilm formation at 4.6 ug/ml measured after 24 hrs by crystal violet staining based assay relative to control; type: functional; parameters: scale not given: the % may be the effect or the level left; conditions: dose 4.6 µg/ml
# Klebsiella pneumoniae [2] = assay: In vivo antibacterial activity against Klebsiella pneumoniae ATCC 13883 induced bacterial pneumonia mouse model assessed as reduction in bacterial infection induced weight loss at 4 mg/kg, injected into trachea after 24 hrs of infection measured after 3 to 7 days; type: functional, organism-based
# Klebsiella pneumoniae [3] = assay: Antibiofilm activity in Klebsiella pneumoniae ATCC 13883 assessed as reduction in biofilm formation at 4.6 ug/ml measured after 24 hrs by crystal violet staining based assay relative to control; type: functional; parameters: scale not given: the % may be the effect or the level left; conditions: dose 4.6 µg/ml
# Cell membrane [4] = assay: Induction of cell membrane damage in methicillin-resistant Staphylococcus aureus ATCC 43300 assessed as increase in red fluorescence at MIC measured after 1 hr incubation by PI based flow cytometry; type: subcellular
# Klebsiella pneumoniae [5] = assay: Antimicrobial activity against Klebsiella pneumoniae ATCC 13883 assessed as growth inhibition measured after 8 hrs incubation by standard broth dilution assay; type: functional
# Cell membrane [6] = assay: Induction of cell membrane damage in Klebsiella pneumoniae ATCC 13883 assessed as increase in red fluorescence at MIC measured after 1 hr incubation by PI based confocal microscopy; type: subcellular
# Klebsiella pneumoniae [7] = assay: In vivo antibacterial activity against Klebsiella pneumoniae ATCC 13883 induced bacterial pneumonia mouse model assessed as increase in survival of mouse at 1 mg/kg, injected into trachea after 24 hrs of infection measured after 3 to 7 days; type: functional, organism-based
# Staphylococcus aureus [8] = assay: In vivo antibacterial activity against methicillin-resistant Staphylococcus aureus ATCC 43300 infected locally in full thickness skin wound mouse model assessed as reduction in bacterial load in skin wound at 4 mg/kg treated with absorbable gelatin sponge measured after 3 days; type: functional, organism-based; conditions: time 3.0 day
# [9] = Toxicity in mouse skin assessed as abscesses and visual lesions at 40 mg/kg, sc by histological analysis; type: organism-based; conditions: in vivo
# Klebsiella pneumoniae [10] = assay: Antibacterial activity against Klebsiella pneumoniae ATCC 13883 assessed as reduction in bacterial count at 4.6 ug/ml in bio-film adjusted BM2 medium; type: functional, organism-based; conditions: dose 4.6 µg/ml
# Cell membrane [11] = assay: Induction of cell membrane damage in Klebsiella pneumoniae ATCC 13883 assessed as significant plasma membrane rupture, cytosolic membrane and outer membrane separation, and cytoplasmic leakage at MIC measured after 1 hr incubation by Transmission electron microscopy; type: subcellular
# Klebsiella pneumoniae [12] = assay: In vivo antibacterial activity against Klebsiella pneumoniae ATCC 13883 induced bacterial pneumonia mouse model assessed as reduction in bacterial infection induced TNF-alpha level in lung tissue at 4 mg/kg, injected into trachea after 24 hrs of infection measured after 3 to 7 days; type: functional, organism-based
# Klebsiella pneumoniae [13] = assay: In vivo antibacterial activity against Klebsiella pneumoniae ATCC 13883 induced bacterial pneumonia mouse model assessed as reduction in bacterial infection induced IL-1beta level in lung tissue at 4 mg/kg, injected into trachea after 24 hrs of infection measured after 3 to 7 days; type: functional, organism-based
# Cell membrane [14] = assay: Induction of cell membrane damage in methicillin-resistant Staphylococcus aureus ATCC 43300 assessed as increase in green fluorescence at MIC measured after 1 hr incubation by SYTO9 confocal microscopy; type: subcellular
# Cell membrane [15] = assay: Induction of cell membrane damage in methicillin-resistant Staphylococcus aureus ATCC 43300 assessed as corrugation, blebbing, breakage, and fragmentation at MIC measured after 1 hr incubation by Scanning electron microscopy; type: subcellular
# Staphylococcus aureus [16] = assay: In vivo antibacterial activity against methicillin-resistant Staphylococcus aureus ATCC 43300 infected locally in full thickness skin wound mouse model assessed as reduction in inflammatory cells in wound at 4 mg/kg treated with absorbable gelatin sponge measured after 7 days; type: functional, organism-based; conditions: time 7.0 day
# Klebsiella pneumoniae [17] = assay: In vivo antibacterial activity against Klebsiella pneumoniae ATCC 13883 induced bacterial pneumonia mouse model assessed as reduction in bacterial infection induced inflammatory response in lungs by measuring large number of alveoli at 1 mg/kg, injected into trachea after 24 hrs of infection measured after 3 to 7 days by H and E staining based assay; type: functional, organism-based
# Klebsiella pneumoniae [18] = assay: In vivo antibacterial activity against Klebsiella pneumoniae ATCC 13883 induced bacterial pneumonia mouse model assessed as reduction in bacterial infection induced IL-1beta mRNA expression in lung tissue at 4 mg/kg, injected into trachea after 24 hrs of infection measured after 3 to 7 days; type: functional, organism-based
# Cell membrane [19] = assay: Induction of cell membrane damage in Klebsiella pneumoniae ATCC 13883 assessed as corrugation, blebbing, breakage, and fragmentation at MIC measured after 1 hr incubation by Scanning electron microscopy; type: subcellular
# Klebsiella pneumoniae [20] = assay: In vivo antibacterial activity against Klebsiella pneumoniae ATCC 13883 induced bacterial pneumonia mouse model assessed as reduction in bacterial infection induced weight loss at 1 mg/kg, injected into trachea after 24 hrs of infection measured after 3 to 7 days; type: functional, organism-based
# Staphylococcus aureus [21] = assay: In vivo antibacterial activity against methicillin-resistant Staphylococcus aureus ATCC 43300 infected locally in full thickness skin wound mouse model assessed as reduction in bacterial load in skin wound at 1 mg/kg treated with absorbable gelatin sponge measured after 3 days; type: functional, organism-based; conditions: time 3.0 day
# Cell membrane [22] = assay: Induction of cell membrane damage in methicillin-resistant Staphylococcus aureus ATCC 43300 assessed as increase in red fluorescence at MIC measured after 1 hr incubation by PI based assay; type: subcellular
# Cell membrane [23] = assay: Induction of cell membrane damage in methicillin-resistant Staphylococcus aureus ATCC 43300 assessed as significant plasma membrane rupture, […], and cytoplasmic leakage at MIC measured after 1 hr incubation by Transmission electron microscopy; type: subcellular
# Klebsiella pneumoniae [24] = assay: In vivo antibacterial activity against Klebsiella pneumoniae ATCC 13883 induced bacterial pneumonia mouse model assessed as reduction in bacterial load in lungs at 4 mg/kg, injected into trachea after 24 hrs of infection measured after 3 to 7 days; type: functional, organism-based
# Pseudomonas aeruginosa = assay: Antimicrobial activity against Pseudomonas aeruginosa ATCC 27853 assessed as growth inhibition measured after 8 hrs incubation by standard broth dilution assay; type: functional
# Klebsiella pneumoniae [25] = assay: Antibiofilm activity in Klebsiella pneumoniae ATCC 13883 assessed as prevention of biofilm formation at 0.5 to 4 times of MIC measured after 24 hrs by crystal violet staining based assay; type: functional, organism-based
# Staphylococcus aureus [26] = assay: In vivo antibacterial activity against methicillin-resistant Staphylococcus aureus ATCC 43300 infected locally in full thickness skin wound mouse model assessed as reduction in bacterial load in skin wound at 4 mg/kg treated with absorbable gelatin sponge measured after 7 days; type: functional, organism-based; conditions: time 7.0 day
# Staphylococcus aureus [27] = assay: In vivo antibacterial activity against methicillin-resistant Staphylococcus aureus ATCC 43300 infected locally in full thickness skin wound mouse model assessed as reduction in bacterial load in skin wound at 1 mg/kg treated with absorbable gelatin sponge measured after 7 days; type: functional, organism-based; conditions: time 7.0 day
# Cell membrane [28] = assay: Induction of cell membrane damage in Klebsiella pneumoniae ATCC 13883 assessed as increase in red fluorescence at MIC measured after 1 hr incubation by PI based flow cytometry; type: subcellular
# Klebsiella pneumoniae [29] = assay: In vivo antibacterial activity against Klebsiella pneumoniae ATCC 13883 induced bacterial pneumonia mouse model assessed as reduction in bacterial infection induced TNF-alpha mRNA expression in lung tissue at 4 mg/kg, injected into trachea after 24 hrs of infection measured after 3 to 7 days; type: functional, organism-based
# Cell membrane [30] = assay: Binding affinity to Klebsiella pneumoniae ATCC 13883 cell membrane treated with FITC labelled peptides at MIC measured after 1.5 hr by CLSM imaging analysis; type: subcellular
# Staphylococcus aureus [31] = assay: Antibacterial activity against methicillin-resistant Staphylococcus aureus ATCC 43300 assessed as reduction in bacterial count at 4.6 ug/ml in bio-film adjusted BM2 medium; type: functional, organism-based; conditions: dose 4.6 µg/ml
smiles,measurement,setting,value
"CC(=O)N[C@@H](CCCCN)C(=O)N[C@@H](CCCCN)C(=O)N[C@@H](CCCNC(=N)N)C(=O)N[C@H](C(=O)N[C@@H](CCCCN)C(=O)N[C@@H](CCCCN)C(=O)N[C@@H](CCCNC(=N)N)C(=O)N[C@@]1(C)CCC/C=C\CCC[C@@](C)(C(=O)N[C@@H](CCCCN)C(=O)N[C@@]2(C)CCC/C=C\CCC[C@@](C)(C(=O)N[C@@H](CC(C)C)C(=O)N[C@@H](CCCCN)C(=O)N[C@@H](CCCCN)C(=O)N3CCC[C@H]3C(=O)N[C@H](C(=O)N[C@@H](CCCNC(=N)N[C@@H]3O[C@H](CO)[C@@H](O[C@@H]4O[C@H](CO)[C@H](O)[C@H](O)[C@H]4O)[C@H](O)[C@H]3O)C(N)=O)C(C)C)NC(=O)[C@H](CCCNC(=N)N)NC(=O)[C@H](Cc3c[nH]c4ccccc34)NC(=O)[C@H](Cc3ccc(O)cc3)NC2=O)NC(=O)[C@H](CC(C)C)NC(=O)[C@H](CCCCN)NC(=O)[C@H](Cc2ccccc2)NC1=O)C(C)C (Ac-KKRVKKR[S5]FKL[S5]K[S5]YWR[S5]LKKPV[Arg(Nω-βLac)]-NH2; staple (Z) 8-12, 14-18)",Activity,Staphylococcus aureus [1],80.13%
same,Activity,Klebsiella pneumoniae [2],Active
same,Activity,Klebsiella pneumoniae [3],98.18%
same,Activity,Cell membrane [4],Active
same,MIC,Klebsiella pneumoniae [5],1.1 µg/mL
same,Activity,Cell membrane [6],Active
same,Activity,Klebsiella pneumoniae [7],Active
same,Activity,Staphylococcus aureus [8],Active
same,Activity,[9],Non-toxic
same,Activity,Klebsiella pneumoniae [10],inactive
same,Activity,Cell membrane [11],Active
same,Activity,Klebsiella pneumoniae [12],Active
same,Activity,Klebsiella pneumoniae [13],Active
same,Activity,Cell membrane [14],Active
same,Activity,Cell membrane [15],Active
same,Activity,Staphylococcus aureus [16],Active
same,Activity,Klebsiella pneumoniae [17],Active
same,Activity,Klebsiella pneumoniae [18],Active
same,Activity,Cell membrane [19],Active
same,Activity,Klebsiella pneumoniae [20],Active
same,Activity,Staphylococcus aureus [21],Active
same,Activity,Cell membrane [22],Active
same,Activity,Cell membrane [23],Active
same,Activity,Klebsiella pneumoniae [24],Active; Compound Showed Superior Therapeutic Effect Than Slp-0
same,MIC,Pseudomonas aeruginosa,1.1 µg/mL
same,Activity,Klebsiella pneumoniae [25],Dose-dependent-effect
same,Activity,Staphylococcus aureus [26],Active
same,Activity,Staphylococcus aureus [27],Active
same,Activity,Cell membrane [28],Active
same,Activity,Klebsiella pneumoniae [29],Active
same,Activity,Cell membrane [30],Active; Compound Exhibited Brighter Red
same,Activity,Staphylococcus aureus [31],inactive
